The source made the active and inactive calls. No cut-off for these calls is given here.
What was measured:
[1] = Inhibition of K+ dependent pNPPase from pig gastric mucosa; type: tissue-based, Sus scrofa
[2] = species: Sus scrofa; test: Inhibition of H(+)/K(+) ATPase from pig gastric mucosa by non competitive-double reciprocal plot in presence of K+; type: tissue-based
[3] = Inhibition of H(+)/K(+) ATPase from pig gastric mucosa; type: tissue-based, Sus scrofa
[4] = species: Sus scrofa; test: Inhibition of H(+)/K(+) ATPase from pig gastric mucosa by competitive-double reciprocal plot in presence of ATP; type: tissue-based

IC50 [1] | Activity [2] | IC50 [3] | Activity [4] | SMILES
410 nM | Active | 29 nM | Active | O=C(OC[C@H]1O[C@@H](OC(=O)c2cc(O)c(O)c(OC(=O)c3cc(O)c(O)c(O)c3)c2)[C@H](OC(=O)c2cc(O)c(O)c(OC(=O)c3cc(O)c(O)c(O)c3)c2)[C@@H](OC(=O)c2cc(O)c(O)c(OC(=O)c3cc(O)c(O)c(O)c3)c2)[C@@H]1OC(=O)c1cc(O)c(O)c(OC(=O)c2cc(O)c(O)c(O)c2)c1)c1cc(O)c(O)c(OC(=O)c2cc(O)c(O)c(O)c2)c1 [TANNIC ACID]
 | Active | 210 nM | Active | O=c1oc2c(O)c(O)cc3c(=O)oc4c(O)c(O)cc1c4c23 [ELLAGIC ACID]

From ChEMBL document CHEMBL1159024, “Inhibitory effect of tannic acid on gastric H+,K(+)-ATPase” (J Nat Prod, 1992)
